Target: T1, KDM5A (Homo sapiens, UniProt P29375)
T1 construct: Full length KDM5A enzyme was expressed and purified inhouse; made in house
Assay: KDM5 enzyme assay, KDM5A HTRF (Example 463)
Type: biochemical
Conditions: not given

T1 sequence (P29375 whole entry): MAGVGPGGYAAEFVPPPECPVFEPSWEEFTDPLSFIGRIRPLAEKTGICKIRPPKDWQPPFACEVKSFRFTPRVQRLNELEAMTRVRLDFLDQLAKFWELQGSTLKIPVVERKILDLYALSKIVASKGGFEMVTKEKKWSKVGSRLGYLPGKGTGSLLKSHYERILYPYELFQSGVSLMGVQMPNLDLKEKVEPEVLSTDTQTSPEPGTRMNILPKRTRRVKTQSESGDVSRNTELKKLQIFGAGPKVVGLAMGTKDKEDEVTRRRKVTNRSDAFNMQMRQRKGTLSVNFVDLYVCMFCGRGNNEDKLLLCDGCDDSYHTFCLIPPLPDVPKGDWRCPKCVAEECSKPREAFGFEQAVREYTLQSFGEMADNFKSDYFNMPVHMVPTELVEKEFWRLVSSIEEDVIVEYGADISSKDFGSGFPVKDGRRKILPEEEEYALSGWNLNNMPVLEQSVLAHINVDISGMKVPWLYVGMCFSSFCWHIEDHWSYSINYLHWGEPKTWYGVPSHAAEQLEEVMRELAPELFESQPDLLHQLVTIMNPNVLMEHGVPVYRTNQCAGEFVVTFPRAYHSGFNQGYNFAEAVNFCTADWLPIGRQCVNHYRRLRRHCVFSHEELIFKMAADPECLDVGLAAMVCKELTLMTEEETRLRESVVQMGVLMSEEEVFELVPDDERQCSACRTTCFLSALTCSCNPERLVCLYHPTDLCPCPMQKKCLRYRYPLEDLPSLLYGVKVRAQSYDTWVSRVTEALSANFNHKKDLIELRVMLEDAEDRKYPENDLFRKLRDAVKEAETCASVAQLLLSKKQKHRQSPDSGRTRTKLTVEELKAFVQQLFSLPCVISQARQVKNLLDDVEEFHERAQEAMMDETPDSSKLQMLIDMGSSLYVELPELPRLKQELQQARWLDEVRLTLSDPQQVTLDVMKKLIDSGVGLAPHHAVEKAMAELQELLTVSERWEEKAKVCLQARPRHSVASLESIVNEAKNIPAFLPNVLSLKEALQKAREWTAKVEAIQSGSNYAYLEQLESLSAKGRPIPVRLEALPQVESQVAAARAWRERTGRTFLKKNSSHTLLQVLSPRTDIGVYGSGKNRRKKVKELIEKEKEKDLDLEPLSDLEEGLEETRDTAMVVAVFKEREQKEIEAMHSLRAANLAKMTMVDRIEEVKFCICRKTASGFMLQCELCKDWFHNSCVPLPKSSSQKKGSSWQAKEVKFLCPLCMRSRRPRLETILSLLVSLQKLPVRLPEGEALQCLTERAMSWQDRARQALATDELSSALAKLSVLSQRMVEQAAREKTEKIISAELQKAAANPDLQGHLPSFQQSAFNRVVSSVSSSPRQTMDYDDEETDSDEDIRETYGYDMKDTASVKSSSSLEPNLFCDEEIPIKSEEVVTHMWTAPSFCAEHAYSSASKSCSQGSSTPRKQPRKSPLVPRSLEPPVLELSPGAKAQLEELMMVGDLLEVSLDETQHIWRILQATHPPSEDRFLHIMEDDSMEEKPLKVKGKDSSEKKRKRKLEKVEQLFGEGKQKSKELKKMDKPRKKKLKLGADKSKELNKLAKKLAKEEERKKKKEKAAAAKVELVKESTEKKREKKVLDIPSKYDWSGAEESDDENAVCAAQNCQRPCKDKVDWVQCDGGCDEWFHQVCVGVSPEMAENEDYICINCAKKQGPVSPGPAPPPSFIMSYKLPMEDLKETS

**Q.** `CC(C)c1c[nH]c2c(C#N)cnn2c1=O` [Example 197] was tested. Which IC50 did it give?
**A.** 0.029 µM

Same assay, conditions: compounds of Examples 1-432; read-out: Example 463 Assay KDM5A HTRF IC50

**Q.** How did the IC50 turn out when `CC(C)c1c(-c2cnn(Cc3cccs3)c2)[nH]c2c(C#N)cnn2c1=O` [Example 155] was run?
**A.** 0.0098 µM

**Q.** `CC(C)c1c(-c2cnn(CC(F)(F)F)c2)[nH]c2c(C#N)cnn2c1=O` [Example 156] was tested. Which IC50 did it give?
**A.** 0.022 µM

**Q.** How did the IC50 turn out when `CC(C)c1c(-c2cnn(Cc3cccc(Cl)c3)c2)[nH]c2c(C#N)cnn2c1=O` [Example 157] was run?
**A.** 0.007 µM

**Q.** For `CC(C)Cn1cc(-c2[nH]c3c(C#N)cnn3c(=O)c2C(C)C)cn1` [Example 158], which IC50 is on record?
**A.** 0.015 µM

**Q.** `CC(C)c1c(-c2cnn(CCC(F)(F)F)c2)[nH]c2c(C#N)cnn2c1=O` [Example 159] was tested. Which IC50 did it give?
**A.** 0.035 µM

**Q.** `CC(C)c1c(-c2cnn(C(F)F)c2)[nH]c2c(C#N)cnn2c1=O` [Example 160] was tested. Which IC50 did it give?
**A.** 0.019 µM

**Q.** For `CC(C)c1c(-c2cnn(CCC#N)c2)[nH]c2c(C#N)cnn2c1=O` [Example 161], which IC50 is on record?
**A.** 0.013 µM

**Q.** Which IC50 does the source give for `CCc1c(-c2ccoc2)n(C)c2c(C#N)cnn2c1=O` [Example 162] here?
**A.** 0.064 µM

**Q.** With `CC(C)c1c(-c2cccc(F)c2)n(C)c2c(C#N)cnn2c1=O` [Example 163] as the compound, how does the IC50 read?
**A.** 0.097 µM

**Q.** How did the IC50 turn out when `CC(C)c1c(-c2cccc(C(F)(F)F)c2)n(C)c2c(C#N)cnn2c1=O` [Example 164] was run?
**A.** 0.15 µM

**Q.** With `COc1cccc(-c2c(C(C)C)c(=O)n3ncc(C#N)c3n2C)c1` [Example 165] as the compound, how does the IC50 read?
**A.** 0.061 µM

**Q.** With `CC(C)c1c(-c2cccc(C#N)c2)n(C)c2c(C#N)cnn2c1=O` [Example 166] as the compound, how does the IC50 read?
**A.** 0.2 µM

**Q.** With `CC(C)c1c(-c2cnn(C)c2)n(C)c2c(C#N)cnn2c1=O` [Example 167] as the compound, how does the IC50 read?
**A.** 0.1 µM

**Q.** With `CC(C)c1c(-c2cccs2)n(C)c2c(C#N)cnn2c1=O` [Example 168] as the compound, how does the IC50 read?
**A.** 0.046 µM

**Q.** `CC(C)c1c(-c2ccsc2)n(C)c2c(C#N)cnn2c1=O` [Example 169] was tested. Which IC50 did it give?
**A.** 0.047 µM

**Q.** For `CC(C)c1c(C2=CCOC2)n(C)c2c(C#N)cnn2c1=O` [Example 170], which IC50 is on record?
**A.** 0.21 µM

**Q.** With `CC(C)c1c(-c2ccn[nH]2)n(C)c2c(C#N)cnn2c1=O` [Example 171] as the compound, how does the IC50 read?
**A.** 0.037 µM

**Q.** Which IC50 does the source give for `CC(C)c1c(-c2ccc(C(F)(F)F)cc2)n(C)c2c(C#N)cnn2c1=O` [Example 172] here?
**A.** 0.14 µM

**Q.** `COc1ccc(-c2c(C(C)C)c(=O)n3ncc(C#N)c3n2C)cc1` [Example 173] was tested. Which IC50 did it give?
**A.** 0.039 µM

**Q.** With `CC(C)c1c(-c2ccccc2F)n(C)c2c(C#N)cnn2c1=O` [Example 174] as the compound, how does the IC50 read?
**A.** 0.081 µM

**Q.** `CC(C)c1c(-c2cccc(-c3ccccc3)c2)n(C)c2c(C#N)cnn2c1=O` [Example 175] was tested. Which IC50 did it give?
**A.** 0.043 µM

**Q.** How did the IC50 turn out when `CCc1c(-c2cccc(-c3ccccc3)c2)n(C)c2c(C#N)cnn2c1=O` [Example 176] was run?
**A.** 0.052 µM

**Q.** `CCc1c(-c2ccco2)n(C)c2c(C#N)cnn2c1=O` [Example 177] was tested. Which IC50 did it give?
**A.** 0.038 µM

**Q.** `CC(C)c1c(-c2ccco2)n(C)c2c(C#N)cnn2c1=O` [Example 178] was tested. Which IC50 did it give?
**A.** 0.043 µM

**Q.** With `C=Cc1c(C(C)C)c(=O)n2ncc(C#N)c2n1C` [Example 179] as the compound, how does the IC50 read?
**A.** 0.035 µM

**Q.** Which IC50 does the source give for `C=C(C)c1c(C(C)C)c(=O)n2ncc(C#N)c2n1C` [Example 180] here?
**A.** 0.061 µM

**Q.** `CC(C)c1c(-c2cnn(Cc3ccccc3)c2)n(C)c2c(C#N)cnn2c1=O` [Example 181] was tested. Which IC50 did it give?
**A.** 0.06 µM

**Q.** How did the IC50 turn out when `CCc1c(-c2cnn(Cc3ccccc3)c2)n(C)c2c(C#N)cnn2c1=O` [Example 182] was run?
**A.** 0.13 µM

**Q.** Which IC50 does the source give for `CC(C)c1c(-c2ccc(F)cc2)n(C)c2c(C#N)cnn2c1=O` [Example 183] here?
**A.** 0.033 µM

**Q.** With `CC(C)c1c(-c2ccc(C#N)cc2)n(C)c2c(C#N)cnn2c1=O` [Example 184] as the compound, how does the IC50 read?
**A.** 0.056 µM

**Q.** For `CC(C)c1c(-c2ccc(-c3ccccc3)o2)n(C)c2c(C#N)cnn2c1=O` [Example 185], which IC50 is on record?
**A.** 0.02 µM

**Q.** `CC(C)c1c(-c2cn[nH]c2)n(C)c2c(C#N)cnn2c1=O` [Example 186] was tested. Which IC50 did it give?
**A.** 0.049 µM

**Q.** Which IC50 does the source give for `CC(C)c1c(-c2cc(-c3ccccc3)co2)n(C)c2c(C#N)cnn2c1=O` [Example 187] here?
**A.** 0.75 µM

**Q.** With `CC(C)c1c(-c2ccc(=O)n(C)c2)n(C)c2c(C#N)cnn2c1=O` [Example 188] as the compound, how does the IC50 read?
**A.** 0.24 µM

**Q.** How did the IC50 turn out when `CCn1cc(-c2c(C(C)C)c(=O)n3ncc(C#N)c3n2C)cn1` [Example 189] was run?
**A.** 0.16 µM

**Q.** `CC(C)c1c(-c2cc(C3CC3)co2)n(C)c2c(C#N)cnn2c1=O` [Example 190] was tested. Which IC50 did it give?
**A.** 0.057 µM

**Q.** For `CCc1c(C)n(CC)c2c(C#N)cnn2c1=O` [Example 191], which IC50 is on record?
**A.** 0.76 µM

**Q.** `CCCn1c(C)c(CC)c(=O)n2ncc(C#N)c12` [Example 192] was tested. Which IC50 did it give?
**A.** 1.5 µM

**Q.** For `CCc1c(C)n(CC2CC2)c2c(C#N)cnn2c1=O` [Example 193], which IC50 is on record?
**A.** 0.86 µM

**Q.** With `CCc1c(C)n(CCOC)c2c(C#N)cnn2c1=O` [Example 194] as the compound, how does the IC50 read?
**A.** 2.3 µM

**Q.** For `CCc1c(C)n(CCO)c2c(C#N)cnn2c1=O` [Example 195], which IC50 is on record?
**A.** 2.2 µM

**Q.** `Cc1c(C(C)C)c(=O)n2ncc(C#N)c2n1C` [Example 196] was tested. Which IC50 did it give?
**A.** 0.047 µM

**Q.** Which IC50 does the source give for `CC(C)c1cn(C)c2c(C#N)cnn2c1=O` [Example 198] here?
**A.** 0.61 µM

**Q.** `CCOC(=O)c1c(CC)c(=O)n2ncc(C#N)c2n1C` [Example 199] was tested. Which IC50 did it give?
**A.** 0.18 µM

**Q.** Which IC50 does the source give for `CCc1c(C(=O)O)n(C)c2c(C#N)cnn2c1=O` [Example 200] here?
**A.** 0.9 µM

**Q.** With `CCc1c(C(N)=O)[nH]c2c(C#N)cnn2c1=O` [Example 201] as the compound, how does the IC50 read?
**A.** 0.029 µM

**Q.** For `CCc1c(-c2cc[nH]c2)[nH]c2c(C#N)cnn2c1=O` [Example 202], which IC50 is on record?
**A.** 0.006 µM

**Q.** With `CC(C)c1c(-c2cc[nH]c2)[nH]c2c(C#N)cnn2c1=O` [Example 203] as the compound, how does the IC50 read?
**A.** 0.011 µM

**Q.** `CC(C)c1c(-c2ccc3c(c2)OC(F)(F)O3)[nH]c2c(C#N)cnn2c1=O` [Example 204] was tested. Which IC50 did it give?
**A.** 0.019 µM

**Q.** For `CC(C)c1c(-c2ccc(C(N)=O)c(F)c2)[nH]c2c(C#N)cnn2c1=O` [Example 205], which IC50 is on record?
**A.** 0.023 µM

**Q.** How did the IC50 turn out when `CC(C)c1c(-c2ccc(S(C)(=O)=O)c(F)c2)[nH]c2c(C#N)cnn2c1=O` [Example 206] was run?
**A.** 0.021 µM

**Q.** How did the IC50 turn out when `CC(C)c1c(-c2ccc(OC(F)(F)F)c(Cl)c2)[nH]c2c(C#N)cnn2c1=O` [Example 207] was run?
**A.** 0.033 µM

**Q.** With `CC(C)c1c(-c2cc(F)cc(C(N)=O)c2)[nH]c2c(C#N)cnn2c1=O` [Example 208] as the compound, how does the IC50 read?
**A.** 0.009 µM

**Q.** With `COc1ccc(-c2[nH]c3c(C#N)cnn3c(=O)c2C(C)C)cc1CO` [Example 209] as the compound, how does the IC50 read?
**A.** 0.018 µM

**Q.** Which IC50 does the source give for `CC(C)c1c(-c2ccn(S(C)(=O)=O)c2)[nH]c2c(C#N)cnn2c1=O` [Example 210] here?
**A.** 0.012 µM

**Q.** Which IC50 does the source give for `CC(C)c1c(-c2ccn(C)c2)[nH]c2c(C#N)cnn2c1=O` [Example 211] here?
**A.** 0.024 µM

**Q.** With `CC(C)c1c(-c2cc3ccccc3[nH]2)[nH]c2c(C#N)cnn2c1=O` [Example 212] as the compound, how does the IC50 read?
**A.** 0.008 µM

**Q.** Which IC50 does the source give for `CC(C)c1c(NC(=O)C2CC2)[nH]c2c(C#N)cnn2c1=O` [Example 213] here?
**A.** 0.018 µM

**Q.** For `CC(C)c1c(NC(=O)c2ccccc2)[nH]c2c(C#N)cnn2c1=O` [Example 214], which IC50 is on record?
**A.** 0.026 µM

**Q.** How did the IC50 turn out when `N#Cc1cnn2c(=O)cc(-c3cccc(Br)c3)[nH]c12` [Example 215] was run?
**A.** 0.41 µM

**Q.** Which IC50 does the source give for `N#Cc1cnn2c(=O)c(Cl)c(-c3ccccc3)[nH]c12` [Example 216] here?
**A.** 0.02 µM

**Q.** For `Cc1[nH]c2c(C#N)cnn2c(=O)c1-c1ccccc1` [Example 217], which IC50 is on record?
**A.** 2.1 µM

**Q.** With `Cn1c(-c2ccccc2)c(Br)c(=O)n2ncc(C#N)c12` [Example 218] as the compound, how does the IC50 read?
**A.** 8 µM

**Q.** Which IC50 does the source give for `Cn1c(-c2ccccc2)c(Cl)c(=O)n2ncc(C#N)c12` [Example 219] here?
**A.** 4.3 µM

**Q.** `Cc1[nH]c2c(C#N)cnn2c(=O)c1Sc1ccccc1Cl` [Example 220] was tested. Which IC50 did it give?
**A.** 21 µM

**Q.** `Cc1c(-c2ccccc2)c(=O)n2ncc(C#N)c2n1C` [Example 221] was tested. Which IC50 did it give?
**A.** 25 µM

**Q.** For `N#Cc1cnn2c(=O)c(CCF)c(-c3ccccc3)[nH]c12` [Example 222], which IC50 is on record?
**A.** 0.012 µM

— patent US10035801B2, “Pyrazolo compounds and uses thereof” (CONSTELLATION PHARMACEUTICALS, INC., priority 2013, dated 2018)
